# Read-outs that look alike come from different tables or passages of the source.
# Legend:
# Format in all cases: physicochemical
# [1] = Bulk/tapped density, compressibility index, Hausner ratio and flowability of drug substance
# Experimental: (§1) Moreover, this low aqueous solubility of ticagrelor leads to an increase of relevance of particle size. Solubility studies in human intestinal fluids, bulk-tapped density, compressibility index, Hausner ratio, flowability studies of drug substance were performed prior to beginning of the development process of pharmaceutical drug product.
# In addition, bulk density and tapped density values of ticagrelor was investigated. By using the results obtained, compressibility index, Hausner ratio and flowability of drug substance was designated.
# [2] = Solubility study of ticagrelor drug substance in water and pH media
# Experimental: as §1
# [3] = Particle size distribution analysis
# Experimental: Moreover, particle size distribution analysis for ticagrelor was performed.
structure (smiles),measurement,setting,value
"CCCSc1nc(N[C@@H]2C[C@H]2c2ccc(F)c(F)c2)c2nnn([C@@H]3C[C@H](OCCO)[C@@H](O)[C@H]3O)c2n1 [Ticagrelor, (1S,2S,3R,5S)-3-(7-{[(1R,2S)-2-(3,4-Diflourophenyl)cyclopropyl]amino}-5-(propylsulfanyl)-3H-[1,2,3]triazol[4,5-d]pyrimidine-3-yl)-5-(2-hydroxyethoxy)cyclopentane-1,2-diol]",Bulk density,[1],0.157
same,Compressibility index,[1],39%
same,Flowability,[1],Very poor
same,Hausner ratio,[1],1.639
same,Tapped density,[1],0.257
same,solubility,"[2]; pH 1.2 medium, pH 1.2, simulated gastric fluid, read-out: Average solubility, pH: 1.2",14 µg/mL
same,solubility,"[2]; pH 4.5 medium, pH 4.5, aqueous buffer, read-out: Average solubility, pH: 4.5",6 µg/mL
same,solubility,"[2]; pH 6.8 medium, pH 6.8, aqueous buffer, read-out: Average solubility, pH: 6.8",5 µg/mL
same,solubility,"[2]; water, read-out: Average solubility, Water",6 µg/mL
same,D10,[3],3.0 µm
same,D50,[3],6.4 µm
same,D90,[3],12.5 µm

# Reference: patent EP4048276B1, “SOLID PHARMACEUTICAL FORMULATIONS COMPRISING TICAGRELOR” (Santa Farma Ilaç Sanayi A.S., priority 2019, dated 2021)
